Data on one molecule can be found in the NIST ThermoML archive (doi:10.1016/j.tca.2015.10.001).

For series [1] the following is noted: Crystal; DTA.
A short description of series [2]: Molar enthalpy of transition or fusion. The note with it: Crystal; DSC.

Structures are written as SMILES. Numbers after ± are expanded uncertainties.

In the case of `CCCCCCCCCCCCCCCCCC` [octadecane], the Normal melting temperature in series [1] was determined as 28.40 ± 4 °C. Besides, the “Molar enthalpy of transition or fusion” value in series [2] was 13.8 ± 0.86 kcal/mol.
